System: zrt1zrt2 double mutant strain ZHY3
Assay: 65Zn uptake assay in zrt1zrt2 double mutant
Assay type: cell-based, Saccharomyces cerevisiae
Conditions: ZHY3 without ZIP gene, 5 minute time course using 10 mM Zn
Procedure: Zinc uptake assays were performed as described previously for iron uptake (Eide et al. (1992) J. Biol. Chem. 267:20774-20781) except that ^65ZnCl2 (Amersham) and LZM-EDTA were substituted for ^59FeCI3 and LIM-EDTA, respectively. Cells were incubated for 5 minutes in LZM-EDTA plus the indicated concentration of ^65Zn, collected on glass fiber filters (Schleicher and Schuell), washed with 10 ml ice-cold SSW (1 mM EDTA, 20 mM trisodium citrate, 1 mM KH2PO4, 1 mM CaCl2, 5 mM MgSO4, 1 mM NaCl pH 4.2), and cell-associated radioactivity was measured by liquid scintillation counting. […] Michaelis-Menten kinetic values were determined using […] software (Intellikinetics, Princeton, N.J.). […] The statistical significance of the differences of values relative to controls was determined with one-way analysis of variance (ANOVA) followed by a Dunnett multiple comparison test. β-galactosidase activity was assayed in cells harvested at an OD600 of 0.5-2.0 as described by Guarente (Guarente, L. (1983) Methods Enzymol. 101:181-191) and activity is expressed as the change in absorbance at 420 nm×1000 divided by (min×ml of culture used×OD600 of the culture). Cell-associated zinc was measured in parallel cultures supplemented with tracer amounts of ^65Zn (10 μM) and nonradioactive zinc to the indicated final concentration. […]

[Zn+2] [zinc]
zinc uptake: essentially no detectable zinc uptake
